These results are taken from US9066880B2, “Use of dihydrodehydrodiisoeugenol and preparations comprising dihydrodehydrodiisoeugenol” (SYMRISE AG, priority 2010, dated 2015).

Experiment [1] deals with 3T3-L1-cells (mouse embryonic fibroblast-like preadipocytes cell line). The experiment is described as follows: Quantification of intracellular lipids (stimulation of adipogenesis), Nile Red. Format: cell-based. Further details: Stimulation of adipogenesis: unit not given here. The following applies: for Stimulation of adipogenesis: applied day −2 to day 2, Nile Red at day 10, vs hormone mix only. As for the experimental part:
3T3-L1-cells (mouse embryonic fibroblast-like preadipocytes cell line) were propagated in Dulbecco's Modified Eagle Medium (DMEM), enriched with 10% newborn calf serum (CS) at 37° C. and 5% CO2 and seeded in 48-well plates for lipid quantification. After reaching confluence at day −2 the differentiation was induced by changing medium at day 0 to DMEM with 10% fetal calf serum (FCS) containing a hormone mix (HM) of 1 μg/ml insulin, 0.25 μM dexamethasone (Dex) and 0.5 mM 3-isobutyl-1-methylxanthine (IBMX).
Compounds of interest such as compound of formula (I) are applied from day −2 (confluence of the cells) until day 2 using various concentrations. Medium is renewed every other day. At day 2, medium consisting of DMEM, 10% FCS and 1 μg/ml insulin is added. From day 4 on, only DMEM containing 10% FCS is used for further cultivation of cells. At day 10, quantification of the intracellular lipid droplets is performed by addition of the fluorescent dye Nile Red (9-diethylamino-5H-benzo[alpha]phenoxazine-5-one) for 20 minutes at 37° C. and 5% CO2. Fluorescence (RFU) is detected with excitation at 485 nm and emission at 535 nm.
Stimulation of the adipogenesis in the presence of the compounds of interest is calculated according to the following equation:
[formula] wherein • RFU test substance=Relative Fluorescence Units of the wells with test substance and with cells • RFU control=Relative Fluorescence Units of the wells stimulated with hormone mix only. • RFU without cells=Relative Fluorescence Units of the wells containing Nile Red only, without cells.

Experiment [2] has the same test system. The experiment is described as follows: Lipolysis assay (in vitro), free glycerol in supernatant. In kind it is cell-based. The note with it: for Relative lipolysis compared to basal lipolysis: added at day 10 for 20 hours, basal lipolysis = 100%. As for the experimental part: 3T3-L1-cells (mouse embryonic fibroblast-like preadipocytes cell line) were propagated in Dulbecco's Modified Eagle Medium (DMEM), enriched with 10% newborn calf serum (CS) at 37° C. and 5% CO2 and seeded in 48-well plates for lipolysis. After reaching confluence at day −2 the differentiation was induced by changing medium at day 0 to DMEM with 10% fetal calf serum (FCS) containing a hormone mix (HM) of 1 μg/ml insulin, 0.25 μM dexamethasone (Dex) and 0.5 mM 3-isobutyl-1-methylxanthine (IBMX). Medium is renewed every other day. At day 2, medium consisting of DMEM, 10% FCS and 1 μg/ml insulin is added. From day 4 on, only DMEM containing 10% FCS is used for further cultivation of cells. For determination of lipolysis, compounds of interest are added at day 10 for 20 hours mixed with bovine serum albumin (BSA). If lipolysis occurs, cells secrete glycerol into the supernatant. Therefore, supernatants are harvested and determination of lipolysis is performed by using a free glycerol reagent. The quantification of the free glycerol is carried out on the basis of an enzymatic method with a free glycerol reagent.
The lipolysis in the presence of the test substances is calculated according to the following equation:
[formula] wherein • A test substance=absorption of the wells with test substance and with cells • A control=absorption of the wells without test substance, but with cells • A control without cells=absorption of the wells without test substance and without cells

As for `C[C@H]1CC[C@@]2(OC1)O[C@H]1C[C@H]3[C@@H]4CC[C@@H]5C[C@@H](O)CC[C@]5(C)[C@H]4CC[C@]3(C)[C@H]1[C@@H]2C` [sarsasapogenin, reference compound], the results for the Stimulation of adipogenesis in experiment [1] (10 μM) and in experiment [1] (20 μM) were 27 and 17, respectively. The “Effect on adipogenesis (in words)” value in experiment [1] (experiments have shown) is reported as “stimulating the adipogenesis”. The “Relative lipolysis compared to basal lipolysis” value is recorded as 99% ± 3.3 in experiment [2] (10 μM) and 106% ± 3.5 in experiment [2] (20 μM). Further, the “Effect on lipolysis in differentiated adipocytes (in words)” value in experiment [2] (experiments have shown) is listed as “no effect on the lipolysis”.
